Test results from patent US20260274829A1, “NEW E3 UBIQUITIN LIGASE LIGAND, PROTEIN DEGRADATION AGENT AND USE THEREOF” (GLUETACS THERAPEUTICS (SHANGHAI) CO., LTD., priority 2023, published 2026).

Tests used:
MM.1S (MM1S) = assay: CCK-8 tumor cell proliferation IC50, MM.1S; conditions: MM.1S cells, compounds designed based on the IRAK4 inhibitors, read-out: Inhibitory activity (IC50, nM) on tumor cell proliferation, MM.1S
Description: (§1) The tumor cells used herein were cultured in a cell culture medium listed in table A1 at 37° C. in an incubator with 5% CO2. Prior to experimentation, all cell lines used were correctly identified by STR profiling, and tested negative for mycoplasma contamination using a mycoplasma detection kit through routine screenings.
(§2) IC50 values of the compounds of the present disclosure (including the compounds in Table 1, and compounds of examples) were measured using the Meilun Cell Counting Kit-8 kit from Dalian Meilun Biotech Co., Ltd. Assay details are as follows: tumor cells were seeded in a 96-well plate at a density listed in Table A2. After 24 h, 100 μL of the inoculated cells were treated with 0.5 μL of the compounds of the present disclosure (including the compounds in Tables 1 and 2, and compounds of examples) at 10 different successively decreasing concentrations (starting at the highest concentration of 1 μM; 5-fold serial dilutions). After the cells were treated with the compounds of the present disclosure for a period of time, the cell viability detection reagent was added to the culture medium for cell viability assessment according to the instructions provided with the CCK-8 kit. […] The growth inhibition of the compounds of the present disclosure on cells was plotted by Prism Graphpad software, and the IC50 values of the compounds of the present disclosure were calculated therefrom.

[1] = system: MGC-803 (MGC80-3, MGC803); assay: CCK-8 tumor cell proliferation IC50, MGC-803; set-up: species or system human; conditions: MGC803 cells, compounds designed based on the IRAK4 inhibitors, read-out: Inhibitory activity (IC50, nM) on tumor cell proliferation, MGC803
Description: as §1, §2

H1299 = assay: CCK-8 tumor cell proliferation IC50, H1299; set-up: species or system human; conditions: H1299 cells, compounds designed based on the IRAK4 inhibitors, read-out: Inhibitory activity (IC50, nM) on tumor cell proliferation, H1299
Description: as §1, §2

NCI-H1975 (H1975) = assay: CCK-8 tumor cell proliferation IC50, NCI-H1975; conditions: Homo sapiens, Table B3, designed based on the EGFR inhibitors, 96 hours, read-out: Inhibitory activity (IC50, nM) on tumor cell proliferation: H1975
Description: as §1
as §2, with “dilutions).” for “dilutions). After the cells were treated with the compounds of the present disclosure for a period of time, the cell viability detection reagent was added to the culture medium for cell viability assessment according to the instructions provided with the CCK-8 kit.”

CK1a = target: T1, CK1a (Homo sapiens, UniProt P48729+Q96SW2); assay: Western blot degradation of CK1a in hPBMC; type: cell-based
T1 construct: endogenous in cells; host or cells: hPBMC
In short: (§3)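 hPBMC treated with degraders, lysates run on SDS-PAGE and Western blotted; band grayscale measured against DMSO controls. DC50 from fitted concentration-response curve at half control intensity. Remaining target protein (%) = target band normalized to internal control band, relative to untreated.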

IKZF2 = target: T2, IKZF2 (Homo sapiens, UniProt Q96SW2+Q9UKS7); assay: Western blot degradation of IKZF2 in hPBMC; type: cell-based
T2 construct: endogenous in cells; host or cells: hPBMC
In short: as §3

IKZF3 = target: T3, IKZF3 (Homo sapiens, UniProt Q96SW2+Q9UKT9); assay: Western blot degradation of IKZF3 in hPBMC; type: cell-based
T3 construct: endogenous in cells; host or cells: hPBMC
In short: as §3

WEE1 = target: T4, WEE1 (Homo sapiens, UniProt P30291+Q96SW2); assay: Western blot degradation of WEE1 in hPBMC; type: cell-based
T4 construct: endogenous in cells; host or cells: hPBMC
In short: as §3

GSPT1 = target: T5, GSPT1 (Homo sapiens, UniProt P15170+Q96SW2); assay: Western blot degradation of GSPT1 in hPBMC; type: cell-based
T5 construct: endogenous in cells; host or cells: hPBMC
In short: as §3

IKZF1 = target: T6, IKZF1 (Homo sapiens, UniProt Q13422+Q96SW2); assay: Western blot degradation of IKZF1 in hPBMC; type: cell-based
T6 construct: endogenous in cells; host or cells: hPBMC
In short: as §3

MM.1R = assay: CCK-8 tumor cell proliferation IC50, MM.1R; conditions: Table B4, designed based on the CDK4/6 inhibitors, 72 hours, read-out: Inhibitory activity (IC50, nM) on tumor cell proliferation: MM.1R
Description: as §1
as §2, with “dilutions).” for “dilutions). After the cells were treated with the compounds of the present disclosure for a period of time, the cell viability detection reagent was added to the culture medium for cell viability assessment according to the instructions provided with the CCK-8 kit.”

T1 sequence (P48729 whole entry): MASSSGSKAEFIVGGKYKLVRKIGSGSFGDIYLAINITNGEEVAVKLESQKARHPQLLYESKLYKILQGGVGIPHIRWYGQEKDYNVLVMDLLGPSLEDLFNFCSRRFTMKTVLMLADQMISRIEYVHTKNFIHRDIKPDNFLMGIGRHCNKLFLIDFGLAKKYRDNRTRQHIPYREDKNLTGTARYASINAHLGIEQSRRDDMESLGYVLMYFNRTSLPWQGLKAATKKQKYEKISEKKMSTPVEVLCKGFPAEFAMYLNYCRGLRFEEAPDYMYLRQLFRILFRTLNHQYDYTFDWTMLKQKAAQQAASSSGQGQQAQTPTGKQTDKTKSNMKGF
T1 sequence (Q96SW2 whole entry): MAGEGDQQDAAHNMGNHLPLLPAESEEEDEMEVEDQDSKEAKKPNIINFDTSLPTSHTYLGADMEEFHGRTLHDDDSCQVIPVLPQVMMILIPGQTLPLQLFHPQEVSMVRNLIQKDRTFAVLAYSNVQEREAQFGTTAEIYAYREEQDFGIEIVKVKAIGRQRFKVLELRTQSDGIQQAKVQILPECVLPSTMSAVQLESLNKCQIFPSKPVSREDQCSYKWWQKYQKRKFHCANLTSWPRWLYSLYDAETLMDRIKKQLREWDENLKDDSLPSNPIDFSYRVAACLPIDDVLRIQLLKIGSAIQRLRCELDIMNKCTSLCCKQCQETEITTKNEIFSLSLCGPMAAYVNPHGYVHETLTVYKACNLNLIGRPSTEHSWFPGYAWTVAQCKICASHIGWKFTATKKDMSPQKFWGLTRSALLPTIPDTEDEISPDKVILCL
T1 sequence (Q16531 whole entry partner): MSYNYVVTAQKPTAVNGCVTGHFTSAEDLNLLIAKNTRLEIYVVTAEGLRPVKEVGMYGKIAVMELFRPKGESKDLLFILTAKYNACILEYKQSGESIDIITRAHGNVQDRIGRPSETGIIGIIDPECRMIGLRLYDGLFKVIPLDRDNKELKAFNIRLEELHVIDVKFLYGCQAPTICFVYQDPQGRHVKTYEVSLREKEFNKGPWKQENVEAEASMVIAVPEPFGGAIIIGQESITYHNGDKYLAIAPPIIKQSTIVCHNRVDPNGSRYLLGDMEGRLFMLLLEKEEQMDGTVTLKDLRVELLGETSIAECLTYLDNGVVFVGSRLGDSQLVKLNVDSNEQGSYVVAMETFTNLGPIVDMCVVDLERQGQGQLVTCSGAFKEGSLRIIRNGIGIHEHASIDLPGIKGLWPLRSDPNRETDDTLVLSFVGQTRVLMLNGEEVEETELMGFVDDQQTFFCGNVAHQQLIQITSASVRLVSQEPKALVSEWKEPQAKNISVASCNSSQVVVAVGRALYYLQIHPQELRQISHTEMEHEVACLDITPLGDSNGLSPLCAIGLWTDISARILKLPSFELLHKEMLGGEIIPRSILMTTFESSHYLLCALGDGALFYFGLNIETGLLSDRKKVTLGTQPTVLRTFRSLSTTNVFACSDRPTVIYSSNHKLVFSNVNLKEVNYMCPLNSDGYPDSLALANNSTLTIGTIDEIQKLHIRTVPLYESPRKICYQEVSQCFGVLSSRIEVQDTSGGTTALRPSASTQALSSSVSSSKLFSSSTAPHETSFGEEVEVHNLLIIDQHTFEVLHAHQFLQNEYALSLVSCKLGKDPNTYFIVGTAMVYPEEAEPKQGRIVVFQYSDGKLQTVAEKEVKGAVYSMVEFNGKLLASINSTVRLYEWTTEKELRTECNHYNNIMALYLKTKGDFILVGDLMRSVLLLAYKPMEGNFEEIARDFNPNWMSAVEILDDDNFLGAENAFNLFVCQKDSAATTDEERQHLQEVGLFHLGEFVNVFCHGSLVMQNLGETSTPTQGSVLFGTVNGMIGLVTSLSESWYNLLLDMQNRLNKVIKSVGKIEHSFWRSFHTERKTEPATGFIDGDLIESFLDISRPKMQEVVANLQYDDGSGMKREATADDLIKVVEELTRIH
T5 sequence (P15170 whole entry): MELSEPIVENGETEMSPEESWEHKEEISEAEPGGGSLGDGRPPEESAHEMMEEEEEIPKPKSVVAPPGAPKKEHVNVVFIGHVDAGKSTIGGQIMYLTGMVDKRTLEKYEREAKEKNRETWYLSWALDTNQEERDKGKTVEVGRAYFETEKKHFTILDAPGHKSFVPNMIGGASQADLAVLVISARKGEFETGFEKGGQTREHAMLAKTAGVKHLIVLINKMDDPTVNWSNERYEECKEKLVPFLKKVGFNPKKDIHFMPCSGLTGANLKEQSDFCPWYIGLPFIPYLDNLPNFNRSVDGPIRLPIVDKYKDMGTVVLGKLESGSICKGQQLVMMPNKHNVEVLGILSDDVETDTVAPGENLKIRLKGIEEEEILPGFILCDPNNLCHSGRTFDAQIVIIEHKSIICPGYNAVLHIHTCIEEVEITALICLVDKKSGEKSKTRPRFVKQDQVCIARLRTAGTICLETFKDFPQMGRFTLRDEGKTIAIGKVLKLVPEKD
T5 sequence (Q96SW2 whole entry): as the sequence (Q96SW2 whole entry) above
T5 sequence (Q16531 whole entry partner): as the sequence (Q16531 whole entry partner) above
T6 sequence (Q13422 whole entry): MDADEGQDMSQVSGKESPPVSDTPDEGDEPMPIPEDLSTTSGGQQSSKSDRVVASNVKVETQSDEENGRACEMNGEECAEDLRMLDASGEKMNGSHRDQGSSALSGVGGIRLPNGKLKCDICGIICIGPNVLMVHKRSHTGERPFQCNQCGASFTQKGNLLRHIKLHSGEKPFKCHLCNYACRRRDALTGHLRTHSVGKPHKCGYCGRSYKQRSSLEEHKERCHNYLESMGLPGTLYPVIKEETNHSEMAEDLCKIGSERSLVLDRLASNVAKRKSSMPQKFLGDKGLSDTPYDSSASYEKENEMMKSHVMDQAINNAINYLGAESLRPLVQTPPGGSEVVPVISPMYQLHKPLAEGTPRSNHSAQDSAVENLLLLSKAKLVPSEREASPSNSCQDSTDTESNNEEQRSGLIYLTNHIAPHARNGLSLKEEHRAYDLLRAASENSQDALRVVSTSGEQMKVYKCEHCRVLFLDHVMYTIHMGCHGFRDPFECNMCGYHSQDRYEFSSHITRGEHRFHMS
T6 sequence (Q96SW2 whole entry): as the sequence (Q96SW2 whole entry) above
T6 sequence (Q16531 whole entry partner): as the sequence (Q16531 whole entry partner) above
T2 sequence (Q9UKS7 whole entry): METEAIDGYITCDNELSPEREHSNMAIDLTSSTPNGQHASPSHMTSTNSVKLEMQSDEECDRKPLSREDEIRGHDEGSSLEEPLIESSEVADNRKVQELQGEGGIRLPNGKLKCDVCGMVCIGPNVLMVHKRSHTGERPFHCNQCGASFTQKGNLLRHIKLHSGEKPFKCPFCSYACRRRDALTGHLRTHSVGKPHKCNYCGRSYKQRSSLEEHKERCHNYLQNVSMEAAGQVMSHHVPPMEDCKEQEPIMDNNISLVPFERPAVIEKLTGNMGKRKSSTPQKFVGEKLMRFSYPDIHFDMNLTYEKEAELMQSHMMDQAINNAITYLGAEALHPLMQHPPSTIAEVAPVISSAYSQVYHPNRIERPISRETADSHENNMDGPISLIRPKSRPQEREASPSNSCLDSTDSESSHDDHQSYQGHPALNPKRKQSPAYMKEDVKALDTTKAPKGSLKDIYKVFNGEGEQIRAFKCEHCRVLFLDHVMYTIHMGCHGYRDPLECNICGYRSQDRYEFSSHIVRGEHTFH
T2 sequence (Q96SW2 whole entry): as the sequence (Q96SW2 whole entry) above
T2 sequence (Q16531 whole entry partner): as the sequence (Q16531 whole entry partner) above
T3 sequence (Q9UKT9 whole entry): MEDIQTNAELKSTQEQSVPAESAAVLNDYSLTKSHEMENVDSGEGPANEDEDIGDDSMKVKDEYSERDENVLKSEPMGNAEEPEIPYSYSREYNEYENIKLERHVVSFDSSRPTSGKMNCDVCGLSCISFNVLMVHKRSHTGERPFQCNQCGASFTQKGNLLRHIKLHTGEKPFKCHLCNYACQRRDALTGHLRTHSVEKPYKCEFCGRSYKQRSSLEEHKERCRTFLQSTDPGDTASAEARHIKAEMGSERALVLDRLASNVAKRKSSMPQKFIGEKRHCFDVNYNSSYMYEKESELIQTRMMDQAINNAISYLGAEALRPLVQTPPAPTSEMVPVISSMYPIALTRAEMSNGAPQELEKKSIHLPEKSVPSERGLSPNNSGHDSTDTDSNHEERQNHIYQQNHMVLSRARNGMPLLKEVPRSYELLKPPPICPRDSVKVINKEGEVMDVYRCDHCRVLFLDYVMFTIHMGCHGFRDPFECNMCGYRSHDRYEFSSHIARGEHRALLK
T3 sequence (Q96SW2 whole entry): as the sequence (Q96SW2 whole entry) above
T3 sequence (Q16531 whole entry partner): as the sequence (Q16531 whole entry partner) above

Row | SMILES | IC50 (MM.1S (MM1S)) [nM] | IC50 [1] [nM] | IC50 (H1299) [nM] | Degradation of substrate protein CK1a (substrate protein remaining %) (CK1a) | Degradation of substrate protein IKZF2 (substrate protein remaining %) (IKZF2) | Degradation of substrate protein IKZF3 (substrate protein remaining %) (IKZF3) | Degradation of substrate protein WEE1 (substrate protein remaining %) (WEE1) | Degradation of substrate protein GSPT1 (substrate protein remaining %) (GSPT1) | Degradation of substrate protein IKZF1 (substrate protein remaining %) (IKZF1) | also measured
1 | O=C1CCC(Nc2cccc(CN3CCN(Cc4ccc5c(c4)nc(NC(=O)c4cccc(C(F)(F)F)c4)n5C4CCC(CO)CC4)CC3)c2)C(=O)N1 (centres unmarked) [GT-04976, N-(5-((4-(3-((2,6-dioxopiperidin-3-yl)amino)benzyl)piperazin-1-yl)methyl)-1-((1s,4s)-4-(hydroxymethyl)cyclohexyl)-1H-benzo[d]imidazol-2-yl)-3-(trifluoromethyl)benzamide] | 100 to 500 |  |  |  |  |  |  |  |  | 
2 | O=C1CCC(c2ccc(CN3CCN(c4ccc5c(c4)nc(NC(=O)c4cccc(C(F)(F)F)c4)n5C4CCC(CO)CC4)CC3)cc2)C(=O)N1 (centres unmarked) [GT-04981, N-(5-(4-(4-(2,6-dioxopiperidin-3-yl)benzyl)piperazin-1-yl)-1-((1s,4s)-4-(hydroxymethyl)cyclohexyl)-1H-benzo[d]imidazol-2-yl)-3-(trifluoromethyl)benzamide] | 100 to 500 | 500 to 1000 | 500 to 1000 |  |  |  |  |  |  | 
3 | O=C1CCN(c2ccc(CN3CCN(c4ccc5c(c4)nc(NC(=O)c4cccc(C(F)(F)F)c4)n5[C@H]4CC[C@@H](CO)CC4)CC3)cc2)C(=O)N1 [GT-04982, N-(5-(4-(4-(2,4-dioxotetrahydropyrimidin-1(2H)-yl)benzyl)piperazin-1-yl)-1-((1s,4s)-4-(hydroxymethyl)cyclohexyl)-1H-benzo[d]imidazol-2-yl)-3-(trifluoromethyl)benzamide] | 50 to 100 | 100 to 500 | 100 to 500 |  |  |  |  |  |  | 
4 | O=C1CCN(c2ccc(CN3CCN(c4ccc5c(c4)nc(NC(=O)c4cccc(C(F)(F)F)c4)n5[C@H]4CC[C@@H](CO)CC4)CC3)nc2)C(=O)N1 [GT-04986, N-(5-(4-((5-(2,4-dioxotetrahydropyrimidin-1(2H)-yl)pyridin-2-yl)methyl)piperazin-1-yl)-1-((1s,4s)-4-(hydroxymethyl)cyclohexyl)-1H-benzo[d]imidazol-2-yl)-3-(trifluoromethyl)benzamide] | 100 to 500 | 100 to 500 | 100 to 500 |  |  |  |  |  |  | 
5 | O=C1CCC(Nc2cccc(CN3CCC(N4CCN(c5ccc6c(c5)nc(NC(=O)c5cccc(C(F)(F)F)c5)n6[C@H]5CC[C@@H](CO)CC5)CC4)CC3)c2)C(=O)N1 (some centres unmarked) [GT-05023, N-(5-(4-(1-(3-((2,6-dioxopiperidin-3-yl)amino)benzyl)piperidin-4-yl)piperazin-1-yl)-1-((1s,4s)-4-(hydroxymethyl)cyclohexyl)-1H-benzo[d]imidazol-2-yl)-3-(trifluoromethyl)benzamide] | 500 to 1000 |  |  |  |  |  |  |  |  | 
6 | O=C1CCN(c2ccc(CN3C4CCC3CN(c3ccc(-c5cc(F)c6c(c5)C(=O)N(C(C(=O)Nc5nccs5)c5ncn7c5CCC7)C6)cc3)C4)cn2)C(=O)N1 (centres unmarked) [GT-06256, 2-(6,7-dihydro-5H-pyrrolo[1,2-c]imidazol-1-yl)-2-(6-(4-(8-((6-(2,4-dioxotetrahydropyrimidin-1(2H)-yl)pyridin-3-yl)methyl)-3,8-diazabicyclo[3.2.1]octan-3-yl)phenyl)-4-fluoro-1-oxoisoindolin-2-yl)-N-(thiazol-2-yl)acetamide] |  |  |  |  |  |  |  |  |  | IC50 (NCI-H1975 (H1975)): 1 to 10 nM
7 | O=C1CCC(Nc2cccc(CN3C4CCC3CN(c3ccc(-c5cc(F)c6c(c5)C(=O)N(C(C(=O)Nc5nccs5)c5ncn7c5CCC7)C6)cc3)C4)c2)C(=O)N1 (centres unmarked) [GT-06257, 2-(6,7-dihydro-5H-pyrrolo[1,2-c]imidazol-1-yl)-2-(6-(4-(8-(3-((2,6-dioxopiperidin-3-yl)amino)benzyl)-3,8-diazabicyclo[3.2.1]octan-3-yl)phenyl)-4-fluoro-1-oxoisoindolin-2-yl)-N-(thiazol-2-yl)acetamide] |  |  |  |  |  |  |  |  |  | IC50 (NCI-H1975 (H1975)): 1 to 10 nM
8 | O=Cc1ccncc1NC1CCC(=O)NC1=O (centres unmarked) [GT-07804, 3-((2,6-dioxopiperidin-3-yl)amino)isonicotinaldehyde] |  |  |  | B (B is defined as substrate protein remaining % > 80%) | A (A is defined as 0% ≤ substrate protein remaining % ≤ 80%) | A (A is defined as 0% ≤ substrate protein remaining % ≤ 80%) | B (B is defined as substrate protein remaining % > 80%) | B (B is defined as substrate protein remaining % > 80%) | B (B is defined as substrate protein remaining % > 80%) | 
9 | O=Cc1cncnc1NC1CCC(=O)NC1=O (centres unmarked) [GT-07805, 4-((2,6-dioxopiperidin-3-yl)amino)pyrimidine-5-carbaldehyde] |  |  |  | B (B is defined as substrate protein remaining % > 80%) | A (A is defined as 0% ≤ substrate protein remaining % ≤ 80%) | A (A is defined as 0% ≤ substrate protein remaining % ≤ 80%) | B (B is defined as substrate protein remaining % > 80%) | B (B is defined as substrate protein remaining % > 80%) | A (A is defined as 0% ≤ substrate protein remaining % ≤ 80%) | 
10 | CC(C)(C)[Si](C)(C)OCc1cnc(NC2CCC(=O)NC2=O)nc1 (centres unmarked) [GT-07808, 3-((5-(((tert-butyldimethylsilyl)oxy)methyl)pyrimidin-2-yl)amino)piperidine-2,6-dione] |  |  |  | B (B is defined as substrate protein remaining % > 80%) | A (A is defined as 0% ≤ substrate protein remaining % ≤ 80%) | A (A is defined as 0% ≤ substrate protein remaining % ≤ 80%) | A (A is defined as 0% ≤ substrate protein remaining % ≤ 80%) | B (B is defined as substrate protein remaining % > 80%) | A (A is defined as 0% ≤ substrate protein remaining % ≤ 80%) | 
11 | O=C1CCC(Nc2ncc(CO)cn2)C(=O)N1 (centres unmarked) [GT-07809, 3-((5-(hydroxymethyl)pyrimidin-2-yl)amino)piperidine-2,6-dione] |  |  |  | B (B is defined as substrate protein remaining % > 80%) | A (A is defined as 0% ≤ substrate protein remaining % ≤ 80%) | A (A is defined as 0% ≤ substrate protein remaining % ≤ 80%) | A (A is defined as 0% ≤ substrate protein remaining % ≤ 80%) | B (B is defined as substrate protein remaining % > 80%) | A (A is defined as 0% ≤ substrate protein remaining % ≤ 80%) | 
12 | CC[C@@H]1[C@H](F)C(=O)N[C@@H]1COc1nccc2cc(C(N)=O)c(OC)cc12 [PF06650833, reference compound] | > 10000 | 5000 to 10000 | 5000 to 10000 |  |  |  |  |  |  | 
13 | CCN1CCN(Cc2ccc(Nc3ncc(F)c(-c4cc(F)c5nc(C)n(C(C)C)c5c4)n3)nc2)CC1 [abemaciclib] |  |  |  |  |  |  |  |  |  | IC50 (MM.1R): 1000 to 5000 nM
